From PMC12655172, “Borylated 5-Membered Ring Iminosugars: Synthesis and Biological Evaluation for Glycosidase Inhibition and Anticancer Properties for Application in Boron Neutron Capture Therapy (BNCT)—Part 2” (Pharmaceuticals, 2025)

Key:
Assay type in all cases: biochemical
[1] = system: T1, α-D-mannosidase (Jack bean); assay: Glycosidase inhibition (Table 2 panel); settings: at 1000 μM
T1 construct: purchased Sigma-Aldrich; host or cells: Jack bean
Outline: (§1)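 Activity was measured with the matching para-nitrophenyl glycoside […] at each enzyme's optimum pH and stopped with Na2CO3 […]. Released para-nitrophenol was read at 400 nm. […]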

[2] = system: T2, α-L-fucosidase (bovine kidney); assay: Glycosidase inhibition (Table 2 panel); settings: at 1000 μM
T2 construct: purchased Sigma-Aldrich; host or cells: bovine kidney
Outline: as §1

[3] = target: T3, β-D-galactosidase (bovine liver) (Bos taurus, UniProt F1MNT6); assay: Glycosidase inhibition (Table 2 panel); settings: at 1000 μM
T3 sequence (F1MNT6 1-469): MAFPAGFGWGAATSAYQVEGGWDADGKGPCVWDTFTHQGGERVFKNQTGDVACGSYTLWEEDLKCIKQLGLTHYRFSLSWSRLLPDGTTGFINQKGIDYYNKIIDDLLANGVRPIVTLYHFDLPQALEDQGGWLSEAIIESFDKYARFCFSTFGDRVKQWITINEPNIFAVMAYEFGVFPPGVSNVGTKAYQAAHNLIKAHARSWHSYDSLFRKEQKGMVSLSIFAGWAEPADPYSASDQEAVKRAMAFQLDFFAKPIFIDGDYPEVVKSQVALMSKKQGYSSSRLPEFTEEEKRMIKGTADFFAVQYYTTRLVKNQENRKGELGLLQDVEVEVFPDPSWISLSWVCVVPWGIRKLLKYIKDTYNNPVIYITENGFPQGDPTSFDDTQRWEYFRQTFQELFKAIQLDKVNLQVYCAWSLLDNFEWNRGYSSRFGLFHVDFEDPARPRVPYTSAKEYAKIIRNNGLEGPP
Outline: as §1

[4] = system: β-D-glucuronidase (bovine liver); assay: Glycosidase inhibition (Table 2 panel); settings: at 1000 μM
Outline: as §1

[5] = system: T4, amyloglucosidase (A. niger); assay: Glycosidase inhibition (Table 2 panel); settings: at 1000 μM
T4 construct: purchased Sigma-Aldrich
Excerpt: (§2) The enzymes α-D-glucosidase (yeast), β-D-glucosidases (almond, bovine liver), α-D-galactosidase (coffee beans), β-D-galactosidase (bovine liver), α-D-mannosidase (Jack bean), β-D-mannosidase (snail), α-L-rhamnosidase (P. decumbens), α-L-fucosidase (bovine kidney), trehalase (porcine kidney), β-D-glucuronidases (E. coli, bovine liver), amyloglucosidase (A. niger), para-nitrophenyl glycosides, and various disaccharides were purchased from Sigma-Aldrich Co (St. Louis, MO, USA).
(§3) Brush border membranes were prepared from the rat small intestine according to the method of Kessler et al., and were assayed at pH 6.8 for rat intestinal maltase using maltose. […] The reaction was stopped by heating at 100 °C for 3 min. After centrifugation (600 g; 10 min), the resulting reaction mixture was added to the Glucose CII-test Wako (Wako Pure Chemical Ind., Osaka, Japan). […] Other glycosidase activities were determined using an appropriate para-nitrophenyl glycoside as substrate at the optimum pH of each enzyme. The reaction mixture contained the substrate ([…]) and the appropriate amount of enzyme. The reaction was stopped by the addition of Na2CO3 (400 μM). The released para-nitrophenol was measured spectrometrically at 400 nm. All reactions were run in methanol.

[6] = target: T5, α-D-glucosidase (yeast) (Saccharomyces cerevisiae, UniProt P53341); assay: Glycosidase inhibition (Table 2 panel); settings: at 1000 μM
T5 construct: purchased Sigma-Aldrich
T5 sequence (P53341 whole entry): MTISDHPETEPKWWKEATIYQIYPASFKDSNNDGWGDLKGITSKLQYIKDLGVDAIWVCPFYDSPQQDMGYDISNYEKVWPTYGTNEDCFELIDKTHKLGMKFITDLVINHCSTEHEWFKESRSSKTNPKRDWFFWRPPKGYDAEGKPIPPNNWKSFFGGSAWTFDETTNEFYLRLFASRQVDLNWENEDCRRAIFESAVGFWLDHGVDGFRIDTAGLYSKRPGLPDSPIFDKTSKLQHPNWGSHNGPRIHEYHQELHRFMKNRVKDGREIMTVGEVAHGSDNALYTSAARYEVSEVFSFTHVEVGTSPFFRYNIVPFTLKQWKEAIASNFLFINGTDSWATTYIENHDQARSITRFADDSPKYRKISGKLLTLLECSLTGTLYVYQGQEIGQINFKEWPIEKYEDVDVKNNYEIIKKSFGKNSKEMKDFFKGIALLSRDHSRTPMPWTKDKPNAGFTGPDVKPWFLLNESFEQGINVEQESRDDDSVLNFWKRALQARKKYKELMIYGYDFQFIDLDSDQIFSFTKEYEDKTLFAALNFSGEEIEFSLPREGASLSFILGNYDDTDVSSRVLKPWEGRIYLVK
Excerpt: as §2, §3

[7] = system: T6, β-D-glucuronidase (E. coli); assay: Glycosidase inhibition (Table 2 panel); settings: at 1000 μM
T6 construct: purchased Sigma-Aldrich
Excerpt: as §2, §3

[8] = target: T5, α-D-glucosidase (yeast); assay: Glycosidase inhibition (Table 3 panel); settings: 1 mg/mL aqueous solution; run in water
Protocol: All enzymes and para-nitrophenyl substrates were purchased from Sigma. Enzymes were assayed at 27 °C in citric acid (0.1 M)/disodium hydrogen phosphate (0.2 M) buffers at the optimum pH for the enzyme. The incubation mixture consisted of […] of 1 mg/mL aqueous solution of extract and […] of the appropriate 5 μM para-nitrophenyl substrate made up in buffer at the optimum pH for the enzyme. […] Assays were carried out in triplicate, and the values given are means of the three replicates per assay. All reactions were run in water.

[9] = system: N-acetyl-β-D-glucosaminidase (bovine kidney); assay: Glycosidase inhibition (Table 3 panel); settings: 1 mg/mL aqueous solution; run in water
Protocol: (§4) All enzymes and para-nitrophenyl substrates were purchased from Sigma. Enzymes were assayed at 27 °C in citric acid (0.1 M)/disodium hydrogen phosphate (0.2 M) buffers at the optimum pH for the enzyme. The incubation mixture consisted of […] of 1 mg/mL aqueous solution of extract and […] of the appropriate […] para-nitrophenyl substrate made up in buffer at the optimum pH for the enzyme. The reactions were stopped by addition of […] 0.4 M glycine (pH 10.4) during the exponential phase of the reaction, which had been determined at the beginning using uninhibited assays in which water replaced the inhibitor. Final absorbances were read at 405 nm using a Versamax microplate reader (Molecular Devices, Wokingham, UK). Assays were carried out in triplicate, and the values given are means of the three replicates per assay. All reactions were run in water.

[10] = system: β-D-glucosidase (almond); assay: Glycosidase inhibition (Table 3 panel); settings: 1 mg/mL aqueous solution; run in water
Protocol: as §4

[11] = system: β-D-glucuronidase (bovine liver); assay: Glycosidase inhibition (Table 3 panel); settings: 1 mg/mL aqueous solution; run in water
Protocol: as §4

[12] = system: several glycosidases; assay: Glycosidase inhibition, whole Table 3 panel; settings: Table 3 assay conditions
Protocol: as §4

For “Borocaptate sodium [BSH, reference compound]”, the “inhibition % α-D-Mannosidase Jack Bean” value [1] was “^aNI ^b(7.9%)”, the “inhibition % α-L-Fucosidase Bovine Kidney” value [2] was “^aNI ^b(0%)” and the “inhibition % β-D-Galactosidase Bovine Liver” value [3] was “^aNI ^b(0%)”. The “inhibition % β-D-Glucuronidase Bovine Liver” value [4] was “^aNI ^b(19.6%)”, the “inhibition % Amyloglucosidase A. niger” value [5] was “^aNI ^b(0%)” and the “inhibition % α-D-Glucosidase Yeast” value [6] was “^aNI ^b(6.9%)”. The “inhibition % β-D-Glucuronidase E. coli” value [7] was “^aNI ^b(6%)”, the “Percentage inhibition α-D-Glucosidase Yeast” value [8] was 59% and the “Percentage inhibition N-Acetyl-β-D-glucosaminidase Bovine Kidney” value [9] was 37.1%. The “Percentage inhibition β-D-Glucosidase Almond” value [10] was 47.3%, the “Percentage inhibition β-D-Glucuronidase Bovine Liver” value [11] was 31.6% and the “Inhibition over the glycosidases of Table 3” value [12] was 31.6–65.9%.
